# In US9656988B2 (Pharmacyclics LLC, priority 2013, dated 2017):
# Like-named read-outs stand apart in the source and are kept apart here.
# Biological target: BTK (Homo sapiens (Human), UniProt Q06187)
# Test: Btk in vitro inhibitory activity (one of Method A TR-FRET, Method B electrophoretic mobility shift, Method C radiometric filter binding)
# Type: biochemical
# [1] = determined using one of the methods of Example 355a, 355b and 355c, read-out: BTK IC50
# Sequence of BTK (Q06187 whole entry): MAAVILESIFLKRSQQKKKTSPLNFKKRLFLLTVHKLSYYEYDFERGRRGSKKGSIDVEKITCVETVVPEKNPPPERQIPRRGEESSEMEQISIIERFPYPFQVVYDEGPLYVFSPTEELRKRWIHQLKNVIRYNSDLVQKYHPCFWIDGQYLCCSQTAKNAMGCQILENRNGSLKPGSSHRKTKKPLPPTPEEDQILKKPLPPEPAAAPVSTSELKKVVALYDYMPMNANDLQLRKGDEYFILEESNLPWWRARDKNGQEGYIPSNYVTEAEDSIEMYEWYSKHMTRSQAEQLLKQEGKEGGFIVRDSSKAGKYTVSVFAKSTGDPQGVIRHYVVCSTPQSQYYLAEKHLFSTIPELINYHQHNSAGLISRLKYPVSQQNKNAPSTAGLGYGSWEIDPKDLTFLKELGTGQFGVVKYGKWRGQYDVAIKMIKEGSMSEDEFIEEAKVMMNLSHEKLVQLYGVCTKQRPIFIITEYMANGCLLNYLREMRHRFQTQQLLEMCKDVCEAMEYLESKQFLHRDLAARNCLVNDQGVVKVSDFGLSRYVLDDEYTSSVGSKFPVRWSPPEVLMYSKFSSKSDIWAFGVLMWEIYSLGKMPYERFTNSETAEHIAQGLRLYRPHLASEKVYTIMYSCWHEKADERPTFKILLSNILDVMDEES
Compound,IC50 [1] [nM],IC50 [nM]
"NC(=O)c1nnc(N2CCC[C@@H](NC(=O)C3CCN(C4CC4)CC3)C2)nc1Nc1ccc(C(=O)N2CCOCC2)cc1 [Example 32, (R)-3-(3-(1-cyclopropylpiperidine-4-carboxamido)piperidin-1-yl)-5-(4-(morpholine-4-carbonyl)phenylamino)-1,2,4-triazine-6-carboxamide]",10 to 100,–
"NC(=O)c1nnc(N2CCC[C@@H](NC(=O)C3CCN(C4CCCC4)CC3)C2)nc1Nc1ccc(C(=O)N2CCOCC2)cc1 [Example 33, (R)-3-(3-(1-cyclopentylpiperidine-4-carboxamido)piperidin-1-yl)-5-(4-(morpholine-4-carbonyl)phenylamino)-1,2,4-triazine-6-carboxamide]",10 to 100,–
"NC(=O)c1nnc(N2CCC[C@@H](NC(=O)N3CCCC3)C2)nc1Nc1ccc(C(=O)N2CCOCC2)cc1 [Example 35, (R)-5-(4-(morpholine-4-carbonyl)phenylamino)-3-(3-(pyrrolidine-1-carboxamido)piperidin-1-yl)-1,2,4-triazine-6-carboxamide]",10 to 100,–
"NC(=O)c1nnc(N2CCC[C@@H](NC(=O)N3CCC(N4CCCCC4)CC3)C2)nc1Nc1ccc(C(=O)N2CCOCC2)cc1 [Example 37, (R)—N-(1-(6-carbamoyl-5-(4-(morpholine-4-carbonyl)phenylamino)-1,2,4-triazin-3-yl)piperidin-3-yl)-1,4′-bipiperidine-1′-carboxamide]",10 to 100,–
"NC(=O)c1nnc(N2CCC[C@@H](NC(=O)N3CCOCC3)C2)nc1Nc1ccc(C(=O)N2CCOCC2)cc1 [Example 38, (R)—N-(1-(6-carbamoyl-5-(4-(morpholine-4-carbonyl)phenylamino)-1,2,4-triazin-3-yl)piperidin-3-yl)morpholine-4-carboxamide]",10 to 100,–
"CN(C(=O)N[C@@H]1CCCN(c2nnc(C(N)=O)c(Nc3ccc(C(=O)N4CCOCC4)cc3)n2)C1)c1ccccc1 [Example 39, (R)-3-(3-(3-methyl-3-phenylureido)piperidin-1-yl)-5-(4-(morpholine-4-carbonyl)phenylamino)-1,2,4-triazine-6-carboxamide]",10 to 100,–
"NC(=O)c1nnc(N2CCC[C@@H](NS(=O)(=O)c3ccccc3)C2)nc1Nc1ccc(C(=O)N2CCOCC2)cc1 [Example 41, (R)-5-(4-(morpholine-4-carbonyl)phenylamino)-3-(3-(phenylsulfonamido)piperidin-1-yl)-1,2,4-triazine-6-carboxamide]",< 10,–
"NC(=O)c1nnc(N2CCC[C@@H](N3CCCC3=O)C2)nc1Nc1ccc(C(=O)N2CCOCC2)cc1 [Example 44, (R)-5-(4-(morpholine-4-carbonyl)phenylamino)-3-(3-(2-oxopyrrolidin-1-yl)piperidin-1-yl)-1,2,4-triazine-6-carboxamide]",10 to 100,–
"NC(=O)c1nnc(N2CCC[C@@H](Oc3nccc4ccccc34)C2)nc1Nc1ccc(C(=O)N2CCOCC2)cc1 [Example 45, (R)-3-(3-(isoquinolin-1-yloxy)piperidin-1-yl)-5-(4-(morpholine-4-carbonyl)phenylamino)-1,2,4-triazine-6-carboxamide]",100 to 1000,–
"CC(C)OC(=O)NN(C(=O)OC(C)C)[C@@H]1CCCN(c2nnc(C(N)=O)c(Nc3ccc(C(=O)N4CCOCC4)cc3)n2)C1 [Example 46, (R)-diisopropyl 1-(1-(6-carbamoyl-5-(4-(morpholine-4-carbonyl)phenylamino)-1,2,4-triazin-3-yl)piperidin-3-yl)hydrazine-1,2-dicarboxylate]",10 to 100,–
"NC(=O)c1nnc(N2CCC[C@@H](n3ccc4cc(C5CC5)cc(F)c4c3=O)C2)nc1Nc1ccc(C(=O)N2CCOCC2)cc1 [Example 47, (R)-3-(3-(6-cyclopropyl-8-fluoro-1-oxoisoquinolin-2(1H)-yl)piperidin-1-yl)-5-(4-(morpholine-4-carbonyl)phenylamino)-1,2,4-triazine-6-carboxamide]",< 10,–
"NC(=O)c1nnc(N2CCC[C@@H](Oc3nccc4cc(C5CC5)cc(F)c34)C2)nc1Nc1ccc(C(=O)N2CCOCC2)cc1 [Example 48, (R)-3-(3-(6-cyclopropyl-8-fluoroisoquinolin-1-yloxy)piperidin-1-yl)-5-(4-(morpholine-4-carbonyl)phenylamino)-1,2,4-triazine-6-carboxamide]",100 to 1000,–
"CC(C)(C)c1ccc(C(=O)N[C@@H]2CCN(c3nnc(C(N)=O)c(Nc4ccc(C(=O)N5CCOCC5)cc4)n3)C2)cc1 [Example 49, (R)-3-(3-(4-tert-butylbenzamido)pyrrolidin-1-yl)-5-(4-(morpholine-4-carbonyl)phenylamino)-1,2,4-triazine-6-carboxamide]",100 to 1000,–
"NC(=O)c1nnc(N2CC[C@@H](NC(=O)c3ccccc3)C2)nc1Nc1ccc(C(=O)N2CCOCC2)cc1 [Example 50, (R)-3-(3-benzamidopyrrolidin-1-yl)-5-(4-(morpholine-4-carbonyl)phenylamino)-1,2,4-triazine-6-carboxamide]",100 to 1000,–
"NC(=O)c1nnc(N2CC[C@@H](NC(=O)C(F)(F)F)C2)nc1Nc1ccc(C(=O)N2CCOCC2)cc1 [Example 51, (R)-5-(4-(morpholine-4-carbonyl)phenylamino)-3-(3-(2,2,2-trifluoroacetamido)pyrrolidin-1-yl)-1,2,4-triazine-6-carboxamide]",100 to 1000,–
"CC(C)(C)c1ccc(C(=O)N[C@@H]2CCCN(c3nnc(C(N)=O)c(Nc4cncc(F)c4)n3)C2)cc1 [Example 52, (R)-3-(3-(4-tert-butylbenzamido)piperidin-1-yl)-5-(5-fluoropyridin-3-ylamino)-1,2,4-triazine-6-carboxamide]",100 to 1000,–
"Cc1ccc(Nc2nc(N3CCC[C@@H](NC(=O)c4ccc(C(C)(C)C)cc4)C3)nnc2C(N)=O)cc1 [Example 53, (R)-3-(3-(4-tert-butylbenzamido)piperidin-1-yl)-5-(p-tolylamino)-1,2,4-triazine-6-carboxamide]",1000 to 10000,–
"Cc1cccc(Nc2nc(N3CCC[C@@H](NC(=O)c4ccc(C(C)(C)C)cc4)C3)nnc2C(N)=O)c1 [Example 54, (R)-3-(3-(4-tert-butylbenzamido)piperidin-1-yl)-5-(m-tolylamino)-1,2,4-triazine-6-carboxamide]",1000 to 10000,–
"CC(C)(C)c1ccc(C(=O)N[C@@H]2CCCN(c3nnc(C(N)=O)c(Nc4ccc(S(C)(=O)=O)cc4)n3)C2)cc1 [Example 55, (R)-3-(3-(4-tert-butylbenzamido)piperidin-1-yl)-5-(4-(methylsulfonyl)phenylamino)-1,2,4-triazine-6-carboxamide]",< 10,10 to 100
"CC(C)(C)c1ccc(C(=O)N[C@@H]2CCCN(c3nnc(C(N)=O)c(Nc4ccc(-c5ncccn5)cc4)n3)C2)cc1 [Example 56, (R)-3-(3-(4-tert-butylbenzamido)piperidin-1-yl)-5-(4-(pyrimidin-2-yl)phenylamino)-1,2,4-triazine-6-carboxamide]",100 to 1000,–
"CC(C)(C)c1ccc(C(=O)N[C@@H]2CCCN(c3nnc(C(N)=O)c(Nc4cccc(-c5ncccn5)c4)n3)C2)cc1 [Example 57, (R)-3-(3-(4-tert-butylbenzamido)piperidin-1-yl)-5-(3-(pyrimidin-2-yl)phenylamino)-1,2,4-triazine-6-carboxamide]",100 to 1000,–
"CC(C)(C)c1ccc(C(=O)N[C@@H]2CCCN(c3nnc(C(N)=O)c(Nc4ccc(-c5ncco5)cc4)n3)C2)cc1 [Example 58, (R)-3-(3-(4-tert-butylbenzamido)piperidin-1-yl)-5-(4-(oxazol-2-yl)phenylamino)-1,2,4-triazine-6-carboxamide]",10 to 100,–
